Read-outs that look alike come from different tables or passages of the source.
Columns and labels:
[1] = system: MYC protein expression in MCF-7 breast cancer cells; test: Western blotting of MYC protein level in MCF-7 cells; type: cell-based, human; settings: Homo sapiens, MCF7; western blotting, MCF-7 cells, 0.5, 1, 2, and 4 μM, 24 hours; read-out: MYC Inhibition
How it was run: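 Immunoblotting with ECL detection quantified MYC, with GAPDH (1:2000) as reference and anti-MYC at 1:1000.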

NCI-60 cancer cell lines = test: NCI-60 cancer cell line drug screen (GI50, MGM); type: cell-based, human; settings: Homo sapiens; for GI50: read-out: Antiproliferative Activities [GI50 (μM)]
Description: Cancer cells were incubated with the test compounds at five concentrations ranging from 100 μM to 10 nM for 48 h. […] The approximate average of GI50 values across the entire panel of NCI-60 cancer cell lines for each compound was recorded as the MGM value.

human topoisomerase I = target: T1, human topoisomerase I (Homo sapiens, UniProt P11387); settings: relative topoisomerase I inhibition levels, previously determined, six levels (0 - 5, +++++ = 5); cited from earlier work
T1 sequence (P11387 1-765): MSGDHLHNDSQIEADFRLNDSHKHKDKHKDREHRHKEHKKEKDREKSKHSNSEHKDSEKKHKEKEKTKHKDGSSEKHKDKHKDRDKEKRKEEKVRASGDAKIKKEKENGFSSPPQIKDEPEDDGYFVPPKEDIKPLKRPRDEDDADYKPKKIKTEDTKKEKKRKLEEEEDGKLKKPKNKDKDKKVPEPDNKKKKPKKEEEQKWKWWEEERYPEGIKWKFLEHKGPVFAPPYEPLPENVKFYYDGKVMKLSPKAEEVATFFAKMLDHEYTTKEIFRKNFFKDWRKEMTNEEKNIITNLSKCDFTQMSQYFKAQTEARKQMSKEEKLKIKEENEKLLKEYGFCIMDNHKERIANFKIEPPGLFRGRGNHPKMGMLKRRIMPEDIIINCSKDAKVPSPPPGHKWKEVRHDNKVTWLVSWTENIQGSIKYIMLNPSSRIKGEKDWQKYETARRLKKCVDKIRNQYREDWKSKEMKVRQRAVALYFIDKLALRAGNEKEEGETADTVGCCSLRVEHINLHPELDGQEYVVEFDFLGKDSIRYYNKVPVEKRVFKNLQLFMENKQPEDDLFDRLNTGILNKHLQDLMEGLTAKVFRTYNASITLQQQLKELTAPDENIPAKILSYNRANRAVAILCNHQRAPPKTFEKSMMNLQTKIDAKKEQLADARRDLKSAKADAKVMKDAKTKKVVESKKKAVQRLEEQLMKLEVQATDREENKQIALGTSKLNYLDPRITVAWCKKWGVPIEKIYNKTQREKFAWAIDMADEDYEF

COc1cc2c(cc1O)-c1c(c3ccc([N+](=O)[O-])cc3c(=O)n1CCCn1ccnc1)C2=O [Compound 37]
minimal effective concentration [1]: 0.5 to 1 µM
GI50 (NCI-60 cancer cell lines; 786-0, Renal Cancer, 786-0): 0.33 µM
GI50 (NCI-60 cancer cell lines; ACHN, Renal Cancer, ACHN): 0.31 µM
GI50 (NCI-60 cancer cell lines; BT-549, Breast Cancer, BT-549): 0.35 µM
GI50 (NCI-60 cancer cell lines; CAKI-1, Renal Cancer, CAKI-1): 0.22 µM
GI50 (NCI-60 cancer cell lines; CCRF-CEM, Leukemia, CCRF-CEM): 0.66 µM
GI50 (NCI-60 cancer cell lines; COLO 205, Colon Cancer, COLO 205): 7.9 µM
GI50 (NCI-60 cancer cell lines; DU-145, Prostate Cancer, DU-145): 0.33 µM
GI50 (NCI-60 cancer cell lines; HCC 2998, Colon Cancer, HCC-2998): 37.1 µM
GI50 (NCI-60 cancer cell lines; HCT-15, Colon Cancer, HCT-15): > 100 µM
GI50 (NCI-60 cancer cell lines; HCT-116, Colon Cancer, HCT-116): 0.74 µM
GI50 (NCI-60 cancer cell lines; HL-60, Leukemia, HL-60(TB)): 0.59 µM
GI50 (NCI-60 cancer cell lines; HOP-62, Non-Small Cell Lung Cancer, HOP-62): 0.59 µM
GI50 (NCI-60 cancer cell lines; HOP-92, Non-Small Cell Lung Cancer, HOP-92): 13.6 µM
GI50 (NCI-60 cancer cell lines; HT-29, Colon Cancer, HT29): 4.08 µM
GI50 (NCI-60 cancer cell lines; Hs-578T, Breast Cancer, HS 578T): > 100 µM
GI50 (NCI-60 cancer cell lines; IGROV-1, Ovarian Cancer, IGROV1): 11.3 µM
GI50 (NCI-60 cancer cell lines; K562, Leukemia, K-562): 2.25 µM
GI50 (NCI-60 cancer cell lines; KM12, Colon Cancer, KM12): 9.39 µM
GI50 (NCI-60 cancer cell lines; LOX IMVI, Melanoma, LOX IMVI): 0.3 µM
GI50 (NCI-60 cancer cell lines; Leukemia, SR): 0.03 µM
GI50 (NCI-60 cancer cell lines; MCF7, Breast Cancer, MCF7): 0.08 µM
GI50 (NCI-60 cancer cell lines; MDA-MB-231, Breast Cancer, MDA-MB-231/ATCC): 18.1 µM
GI50 (NCI-60 cancer cell lines; MDA-MB-435, Melanoma, MDA-MB-435): 2.84 µM
GI50 (NCI-60 cancer cell lines; MOLT-4, Leukemia, MOLT-4): 0.24 µM
GI50 (NCI-60 cancer cell lines; Malme-3M, Melanoma, MALME-3M): 1.79 µM
GI50 (NCI-60 cancer cell lines; NCI-H23, Non-Small Cell Lung Cancer, NCI-H23): 0.68 µM
GI50 (NCI-60 cancer cell lines; NCI-H322M, Non-Small Cell Lung Cancer, NCI-H322M): 72.6 µM
GI50 (NCI-60 cancer cell lines; NCI-H460, Non-Small Cell Lung Cancer, NCI-H460): 0.24 µM
GI50 (NCI-60 cancer cell lines; NCI-H522, Non-Small Cell Lung Cancer, NCI-H522): 0.1 µM
GI50 (NCI-60 cancer cell lines; OVCAR-3, Ovarian Cancer, OVCAR-3): 1.35 µM
GI50 (NCI-60 cancer cell lines; OVCAR-4, Ovarian Cancer, OVCAR-4): 1.41 µM
GI50 (NCI-60 cancer cell lines; OVCAR-5, Ovarian Cancer, OVCAR-5): > 100 µM
GI50 (NCI-60 cancer cell lines; OVCAR-8, Ovarian Cancer, OVCAR-8): 0.89 µM
GI50 (NCI-60 cancer cell lines; Ovarian Cancer, NCl/ADR-RES): > 100 µM
GI50 (NCI-60 cancer cell lines; Prostate Cancer, PC-3): 7.22 µM
GI50 (NCI-60 cancer cell lines; RPMI-8226, Leukemia, RPMI-8226): 0.7 µM
GI50 (NCI-60 cancer cell lines; RXF 393, Renal Cancer, RXF 393): 1.35 µM
GI50 (NCI-60 cancer cell lines; SF-268, CNS Cancer, SF-268): 0.27 µM
GI50 (NCI-60 cancer cell lines; SF-295, CNS Cancer, SF-295): 0.33 µM
GI50 (NCI-60 cancer cell lines; SF-539, CNS Cancer, SF-539): 0.37 µM
GI50 (NCI-60 cancer cell lines; SK-MEL-2, Melanoma, SK-MEL-2): 30.8 µM
GI50 (NCI-60 cancer cell lines; SK-MEL-5, Melanoma, SK-MEL-5): 1.67 µM
GI50 (NCI-60 cancer cell lines; SK-MEL-28, Melanoma, SK-MEL-28): 16.4 µM
GI50 (NCI-60 cancer cell lines; SK-OV-3, Ovarian Cancer, SK-OV-3): 0.56 µM
GI50 (NCI-60 cancer cell lines; SN12C, Renal Cancer, SN12C): 0.42 µM
GI50 (NCI-60 cancer cell lines; SNB-19, CNS Cancer, SNB-19): 12.8 µM
GI50 (NCI-60 cancer cell lines; SNB-75, CNS Cancer, SNB-75): 2.97 µM
GI50 (NCI-60 cancer cell lines; SW-620, Colon Cancer, SW-620): 0.81 µM
GI50 (NCI-60 cancer cell lines; T47D, Breast Cancer, T-47D): 12 µM
GI50 (NCI-60 cancer cell lines; TK-10, Renal Cancer, TK-10): 2.54 µM
GI50 (NCI-60 cancer cell lines; U-251, CNS Cancer, U251): 0.27 µM
GI50 (NCI-60 cancer cell lines; UACC-62, Melanoma, UACC-62): 0.21 µM
GI50 (NCI-60 cancer cell lines; UACC-257, Melanoma, UACC-257): 25.3 µM
mean GI50 across NCI-60 panel (MGM) (NCI-60 cancer cell lines; average of GI50 values across the entire panel of NCI-60 cancer cell lines): 1860 nM
Top1 Inhibiton (human topoisomerase I): ++ (medium inhibition, ++, MYC expression inhibited at 2.0 μM, or no clear dose-dependent MYC inhibition)

Source: patent publication US20210382058A1, “PATIENT SELECTION FOR TREATMENT OF MYC POSITIVE CANCERS WITH INDENOISOQUINOLINES” (Purdue Research Foundation, priority 2020, published 2021)
